Data on 16 compounds can be found in PubChem BioAssay AID256 (DTP/NCI, 2004).

Several values for one entry are separate records, joined by “and”; a condition that tells them apart may be missing. Equal entries are not always repeated. Inconclusive results and toxic doses are left out.

This assay has as its system CD2F1 mice, L1210 leukemia ip, survival T/C. The assay can be described thus: NCI In Vivo Anticancer Drug Screen. Data for tumor model L1210 Leukemia (intraperitoneal) in CD2F1 (CDF1) mice. Particulars: higher = longer survival. The procedure, abridged: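 Activity against a transplanted murine tumor was judged by comparing the compound group with a vehicle group. The outcome in the treated animals was divided by that in the controls.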

Where [1] appears, read: endpoint: median survival time, dose: 3.12 mg/kg/injection, schedule: Q04DX003 (ip), vehicle: saline.
Setting [2] is: endpoint: median survival time, dose: 6.25 mg/kg/injection, schedule: Q04DX003 (ip), vehicle: saline.
The mark [3] stands for this setting: endpoint: median survival time, dose: 12.5 mg/kg/injection, schedule: Q04DX003 (ip), vehicle: saline.
Where [4] appears, read: endpoint: median survival time, dose: 25.0 mg/kg/injection, schedule: Q04DX003 (ip), vehicle: saline.
The mark [5] stands for this setting: endpoint: mean survival time, dose: 50.0 mg/kg/injection, schedule: Q01DX009 (ip), vehicle: Klucel (hydroxypropylcellulose) (HPC).
[6] abbreviates: endpoint: mean survival time, dose: 100.0 mg/kg/injection, schedule: Q01DX009 (ip), vehicle: Klucel (hydroxypropylcellulose) (HPC).
Where [7] appears, read: endpoint: mean survival time, dose: 5.0 mg/kg/injection, schedule: Q04DX003 (ip), vehicle: saline.
Where [8] appears, read: endpoint: mean survival time, dose: 10.0 mg/kg/injection, schedule: Q04DX003 (ip), vehicle: saline.

For the compound `NC1CCCCC1N.O=C1C=C/C(=C(/c2ccc(O)c(Br)c2)c2ccccc2S(=O)(=O)[O-])C=C1Br.O=C1C=C/C(=C(/c2ccc(O)c(Br)c2)c2ccccc2S(=O)(=O)[O-])C=C1Br.[Pt+4]`, the T/C was 175 % of control under setting [1], 219 % of control under setting [2], 239 % of control under setting [3] and 329 % of control under setting [4].

For `CCCCCCCCN(c1ccc(I)cc1)S(=O)(=O)c1ccc(C)cc1`, the T/C is, setting by setting: (endpoint: mean survival time, dose: 100.0 mg/kg/injection, schedule: Q04DX003 (ip), vehicle: saline with Tween-80) 94 % of control; (endpoint: mean survival time, dose: 200.0 mg/kg/injection, schedule: Q04DX003 (ip), vehicle: saline with Tween-80) 94 % of control.

As to `O=S(=O)(F)c1cc(C[P+](c2ccccc2)(c2ccccc2)c2ccccc2)ccc1Cl`, the T/C is 104 % of control (endpoint: mean survival time, dose: 6.25 mg/kg/injection, schedule: Q04DX003 (ip), vehicle: saline with Tween-80); 104 % of control (endpoint: mean survival time, dose: 12.5 mg/kg/injection, schedule: Q04DX003 (ip), vehicle: saline with Tween-80); 116 % of control (endpoint: mean survival time, dose: 25.0 mg/kg/injection, schedule: Q04DX003 (ip), vehicle: saline with Tween-80).

In the case of `O=C(O)Cc1ccccc1C(=O)O.[NH-]C1CCCCC1[NH-].[Pt+2]`, the T/C under setting [1] was 102 % of control and 108 % of control; the T/C under setting [2] was 103 % of control and 108 % of control; the T/C under setting [3] is 109 % of control and 110 % of control; the T/C under setting [4] is 105 % of control and 109 % of control; the T/C (endpoint: median survival time, dose: 50.0 mg/kg/injection, schedule: Q04DX003 (ip), vehicle: saline) was 117 % of control and 112 % of control.

Turning to `CN1CC[C@]23c4c5ccc(O)c4O[C@H]2C(=O)CC[C@H]3[C@H]1C5`, the T/C by setting is: (endpoint: mean survival time, dose: 12.5 mg/kg/injection, schedule: Q01DX009 (ip), vehicle: saline) 95 % of control; (endpoint: mean survival time, dose: 25.0 mg/kg/injection, schedule: Q01DX009 (ip), vehicle: saline) 102 % of control; (endpoint: mean survival time, dose: 50.0 mg/kg/injection, schedule: Q01DX009 (ip), vehicle: saline) 93 % of control.

`c1ccc(-c2cc3ccccc3c(-c3ccccc3)c2-c2ccccc2)cc1`: the T/C runs as follows: (endpoint: mean survival time, dose: 150.0 mg/kg/injection, schedule: Q01DX001 (ip), vehicle: other) 90 % of control; (endpoint: mean survival time, dose: 300.0 mg/kg/injection, schedule: Q01DX001 (ip), vehicle: other) 88 % of control.

As to `CS(=O)(=O)OC[C@@H](O)[C@@H](O)COS(C)(=O)=O`, the T/C (endpoint: mean survival time, dose: 100.0 mg/kg/injection, schedule: Q04DX003 (ip), vehicle: saline sonified) was 94 % of control and 102 % of control; the T/C (endpoint: mean survival time, dose: 200.0 mg/kg/injection, schedule: Q04DX003 (ip), vehicle: saline sonified) is 100 % of control and 108 % of control; the T/C (endpoint: mean survival time, dose: 400.0 mg/kg/injection, schedule: Q04DX003 (ip), vehicle: saline sonified) is 97 % of control and 100 % of control.

On to `C[N+]12CCC34C5=CC(=O)C(=O)C=C5[N+]5(C)C(=O)CC6OCC=C(C1)C(CC32)C6C45` (centres undefined), for which, for the setting “endpoint: mean survival time, dose: 75.0 mg/kg/injection, schedule: Q01DX001 (ip), vehicle: saline”, the T/C was 106 % of control.

In the case of `Brc1ccc(N=Cc2ccccc2)cc1`, the T/C is 100 % of control (endpoint: mean survival time, dose: 100.0 mg/kg/injection, schedule: Q04DX002 (ip), vehicle: saline); 103 % of control (endpoint: mean survival time, dose: 200.0 mg/kg/injection, schedule: Q04DX002 (ip), vehicle: saline); 107 % of control (endpoint: mean survival time, dose: 400.0 mg/kg/injection, schedule: Q04DX002 (ip), vehicle: saline).

Regarding `CC1C(O)=C(c2ccccc2)P(=O)(Cc2ccccc2)C1C` (centres undefined), the T/C by setting is: under setting [5], 104 % of control; under setting [6], 93 % of control; (endpoint: mean survival time, dose: 200.0 mg/kg/injection, schedule: Q01DX009 (ip), vehicle: Klucel (hydroxypropylcellulose) (HPC)) 93 % of control.

Turning to `CCOC(=O)CCN(CC)CC`, the T/C runs as follows: (endpoint: mean survival time, dose: 100.0 mg/kg/injection, schedule: Q01DX009 (ip), vehicle: saline) 106 % of control; (endpoint: mean survival time, dose: 200.0 mg/kg/injection, schedule: Q01DX009 (ip), vehicle: saline) 97 % of control; (endpoint: mean survival time, dose: 400.0 mg/kg/injection, schedule: Q01DX009 (ip), vehicle: saline) 97 % of control.

Turning to `O=C(Nc1ccccc1)c1c(O)[nH]c(=S)[nH]c1=O`, the T/C is, setting by setting: (endpoint: median survival time, dose: 6.2 mg/kg/injection, schedule: Q01DX005 (iv), vehicle: other) 124 % of control; (endpoint: median survival time, dose: 6.2 mg/kg/injection, schedule: Q01DX005 (iv), vehicle: saline with Tween-80) 124 % of control; (endpoint: median survival time, dose: 6.25 mg/kg/injection, schedule: Q01DX009 (ip), vehicle: saline with Tween-80) 116 % of control; (endpoint: median survival time, dose: 12.5 mg/kg/injection, schedule: Q01DX005 (iv), vehicle: other) 124 % of control; (endpoint: median survival time, dose: 12.5 mg/kg/injection, schedule: Q01DX005 (iv), vehicle: saline with Tween-80) 124 % of control; (endpoint: median survival time, dose: 20.0 mg/kg/injection, schedule: Q01DX009 (ip), vehicle: saline with Tween-80) 119 % of control. Besides, the T/C was 158 % of control (endpoint: median survival time, dose: 25.0 mg/kg/injection, schedule: Q01DX005 (iv), vehicle: other); 197 % of control (endpoint: median survival time, dose: 25.0 mg/kg/injection, schedule: Q01DX009 (ip), vehicle: other); 124 % of control (endpoint: median survival time, dose: 25.0 mg/kg/injection, schedule: Q01DX009 (ip), vehicle: water); 162 % of control (endpoint: median survival time, dose: 30.0 mg/kg/injection, schedule: Q01DX009 (ip), vehicle: saline with Tween-80); 157 % of control and 168 % of control (endpoint: median survival time, dose: 44.0 mg/kg/injection, schedule: Q01DX009 (ip), vehicle: saline with Tween-80); 114 % of control (endpoint: median survival time, dose: 50.0 mg/kg/injection, schedule: Q01DX009 (ip), vehicle: other). The T/C runs as follows: (endpoint: median survival time, dose: 50.0 mg/kg/injection, schedule: Q01DX009 (ip), vehicle: water) 204 % of control; (endpoint: median survival time, dose: 67.0 mg/kg/injection, schedule: Q01DX009 (ip), vehicle: saline with Tween-80) 182 % of control and 192 % of control.

In the case of `CC(C#N)(C#N)N=Nc1ccc(Cl)cc1Cl`, the T/C by setting is: (endpoint: mean survival time, dose: 12.5 mg/kg/injection, schedule: Q01DX009 (ip), vehicle: saline with Tween-80) 96 % of control and 102 % of control; (endpoint: mean survival time, dose: 25.0 mg/kg/injection, schedule: Q01DX009 (ip), vehicle: saline with Tween-80) 100 % of control and 104 % of control; (endpoint: mean survival time, dose: 50.0 mg/kg/injection, schedule: Q01DX009 (ip), vehicle: saline with Tween-80) 98 % of control and 107 % of control; (endpoint: mean survival time, dose: 100.0 mg/kg/injection, schedule: Q01DX009 (ip), vehicle: saline with Tween-80) 101 % of control and 107 % of control; (endpoint: mean survival time, dose: 200.0 mg/kg/injection, schedule: Q01DX009 (ip), vehicle: saline with Tween-80) 101 % of control and 111 % of control; (endpoint: mean survival time, dose: 400.0 mg/kg/injection, schedule: Q01DX009 (ip), vehicle: saline with Tween-80) 113 % of control and 102 % of control.

Regarding `O=C(CC(O)(C(F)(F)F)C(F)(F)F)CC(O)(C(F)(F)F)C(F)(F)F`, the T/C is, setting by setting: (endpoint: mean survival time, dose: 5.0 mg/kg/injection, schedule: Q01DX001 (ip), vehicle: saline with Tween-80) 94 % of control; under setting [7], 102 % of control; under setting [8], 92 % of control.

Take `COc1cc(/C=N/NC(=O)CN(C)C)cc(OC)c1N(CCCl)CCCl`: the T/C was 122 % of control under setting [5] and 113 % of control under setting [6].

With `O=C(O)/C=C\C(=O)Nc1ccccn1`, the T/C is 94 % of control (endpoint: mean survival time, dose: 5.0 mg/kg/injection, schedule: Q01DX009 (ip), vehicle: saline); 105 % of control and 106 % of control under setting [7]; 92 % of control (endpoint: mean survival time, dose: 10.0 mg/kg/injection, schedule: Q01DX009 (ip), vehicle: saline); 97 % of control and 105 % of control under setting [8]; 97 % of control and 98 % of control (endpoint: mean survival time, dose: 20.0 mg/kg/injection, schedule: Q04DX003 (ip), vehicle: saline); 100 % of control (endpoint: mean survival time, dose: 30.0 mg/kg/injection, schedule: Q01DX009 (ip), vehicle: saline). Also, the T/C (endpoint: mean survival time, dose: 60.0 mg/kg/injection, schedule: Q01DX009 (ip), vehicle: saline) was 105 % of control.
